Source: the supplement of paper PMC10307832

Columns and labels:
Experiment in all cases: relative viability (nuclei count vs DMSO), 5 days (fraction); higher = more cells survive
LXF-289 = test system: LXF-289
In short: (§1)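 Relative viability is defined as nuclei in treated wells over nuclei in vehicle wells. Duplicate plates were run and medians reported. Lung cancer cell lines in 1536-well plates were dosed by pin tool one day after seeding, with one drug or with a fixed anchor-drug dose plus five library-drug doses (not always all listed) in √10 steps, and nuclei were counted after 5 days.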

EKVX = test system: EKVX
In short: as §1

NCI-H1650 = test system: NCI-H1650
In short: as §1

NCI-H1915 = test system: NCI-H1915
In short: as §1

SW 1573 = test system: SW 1573
In short: as §1

NCI-H661 = test system: NCI-H661
In short: as §1

BEN = test system: BEN
In short: as §1

NCI-H460 = test system: NCI-H460
In short: as §1

NCI-H2228 = test system: NCI-H2228
In short: as §1

NCI-H1651 = test system: NCI-H1651
In short: as §1

COR-L23 = test system: COR-L23
In short: as §1

EPLC-272H = test system: EPLC-272H
In short: as §1

NCI-H520 = test system: NCI-H520
In short: as §1

NCI-H2347 = test system: NCI-H2347
In short: as §1

NCI-H358 = test system: NCI-H358
In short: as §1

A-427 = test system: A-427
In short: as §1

EMC-BAC-2 = test system: EMC-BAC-2
In short: as §1

NCI-H1793 = test system: NCI-H1793
In short: as §1

HCC-44 = test system: HCC-44
In short: as §1

LK-2 = test system: LK-2
In short: as §1

NCI-H2087 = test system: NCI-H2087
In short: as §1

COCC1(CO)C(=O)C2CCN1CC2 (centres undefined) [PRIMA-1MET] + CS(=O)(=O)N1CCN(Cc2cc3nc(-c4cccc5[nH]ncc45)nc(N4CCOCC4)c3s2)CC1 [Pictilisib] (partner 1 µM)
relative viability (LXF-289; first compound 0.2 µM): 0.691 | relative viability (LXF-289; first compound 0.6325 µM): 0.743 | relative viability (LXF-289; first compound 2 µM): 0.531 | relative viability (LXF-289; first compound 6.325 µM): 0.717 | relative viability (LXF-289; first compound 20 µM): 0.761 | relative viability (EKVX; first compound 0.2 µM): 0.475 | relative viability (EKVX; first compound 0.6325 µM): 0.458 | relative viability (EKVX; first compound 2 µM): 0.328 | relative viability (EKVX; first compound 6.325 µM): 0.489 | relative viability (EKVX; first compound 20 µM): 0.356 | relative viability (NCI-H1650; first compound 0.2 µM): 0.618 | relative viability (NCI-H1650; first compound 0.6325 µM): 0.483 | relative viability (NCI-H1650; first compound 2 µM): 0.311 | relative viability (NCI-H1650; first compound 6.325 µM): 0.527 | relative viability (NCI-H1650; first compound 20 µM): 0.209 | relative viability (NCI-H1915; first compound 0.2 µM): 0.712 | relative viability (NCI-H1915; first compound 0.6325 µM): 0.785 | relative viability (NCI-H1915; first compound 2 µM): 0.625 | relative viability (NCI-H1915; first compound 6.325 µM): 0.705 | relative viability (NCI-H1915; first compound 20 µM): 0.932 | relative viability (SW 1573; first compound 0.2 µM): 0.463 | relative viability (SW 1573; first compound 0.6325 µM): 0.409 | relative viability (SW 1573; first compound 2 µM): 0.45 | relative viability (SW 1573; first compound 6.325 µM): 0.0446 | relative viability (SW 1573; first compound 20 µM): 0.0283 | relative viability (NCI-H661; first compound 0.2 µM): 0.396 | relative viability (NCI-H661; first compound 0.6325 µM): 0.238 | relative viability (NCI-H661; first compound 6.325 µM): 0.447 | relative viability (NCI-H661; first compound 20 µM): 0.262 | relative viability (BEN; first compound 0.2 µM): 0.608 | relative viability (BEN; first compound 0.6325 µM): 0.514 | relative viability (BEN; first compound 6.325 µM): 0.521 | relative viability (BEN; first compound 20 µM): 0.464 | relative viability (NCI-H460; first compound 0.2 µM): 0.31 | relative viability (NCI-H460; first compound 0.6325 µM): 0.359 | relative viability (NCI-H460; first compound 2 µM): 0.23 | relative viability (NCI-H460; first compound 6.325 µM): 0.357 | relative viability (NCI-H460; first compound 20 µM): 0.197 | relative viability (NCI-H2228; first compound 0.2 µM): 0.421 | relative viability (NCI-H2228; first compound 0.6325 µM): 0.343 | relative viability (NCI-H2228; first compound 2 µM): 0.358 | relative viability (NCI-H2228; first compound 6.325 µM): 0.19 | relative viability (NCI-H2228; first compound 20 µM): 0.0615 | relative viability (NCI-H1651; first compound 0.2 µM): 0.662 | relative viability (NCI-H1651; first compound 0.6325 µM): 0.583 | relative viability (NCI-H1651; first compound 2 µM): 0.505 | relative viability (NCI-H1651; first compound 6.325 µM): 0.596 | relative viability (NCI-H1651; first compound 20 µM): 0.44 | relative viability (COR-L23; first compound 0.2 µM): 0.77 | relative viability (COR-L23; first compound 0.6325 µM): 0.76 | relative viability (COR-L23; first compound 2 µM): 0.765 | relative viability (COR-L23; first compound 6.325 µM): 0.786 | relative viability (COR-L23; first compound 20 µM): 0.0196 | relative viability (EPLC-272H; first compound 0.2 µM): 0.295 | relative viability (EPLC-272H; first compound 0.6325 µM): 0.251 | relative viability (EPLC-272H; first compound 2 µM): 0.234 | relative viability (EPLC-272H; first compound 6.325 µM): 0.305 | relative viability (EPLC-272H; first compound 20 µM): 0.124 | relative viability (NCI-H520; first compound 0.2 µM): 0.345 | relative viability (NCI-H520; first compound 0.6325 µM): 0.285 | relative viability (NCI-H520; first compound 6.325 µM): 0.368 | relative viability (NCI-H520; first compound 20 µM): 0.13 | relative viability (NCI-H2347; first compound 0.2 µM): 0.416 | relative viability (NCI-H2347; first compound 0.6325 µM): 0.741 | relative viability (NCI-H2347; first compound 6.325 µM): 0.675 | relative viability (NCI-H2347; first compound 20 µM): 0.561 | relative viability (NCI-H358; first compound 0.2 µM): 0.392 | relative viability (NCI-H358; first compound 0.6325 µM): 0.318 | relative viability (NCI-H358; first compound 6.325 µM): 0.319 | relative viability (NCI-H358; first compound 20 µM): 0.0332 | relative viability (A-427; first compound 0.2 µM): 0.255 | relative viability (A-427; first compound 0.6325 µM): 0.53 | relative viability (A-427; first compound 2 µM): 0.528 | relative viability (A-427; first compound 6.325 µM): 0.378 | relative viability (A-427; first compound 20 µM): 0.622 | relative viability (EMC-BAC-2; first compound 0.2 µM): 0.608 | relative viability (EMC-BAC-2; first compound 0.6325 µM): 0.503 | relative viability (EMC-BAC-2; first compound 2 µM): 0.343 | relative viability (EMC-BAC-2; first compound 6.325 µM): 0.566 | relative viability (EMC-BAC-2; first compound 20 µM): 0.583 | relative viability (NCI-H1793; first compound 0.2 µM): 0.372 | relative viability (NCI-H1793; first compound 0.6325 µM): 0.251 | relative viability (NCI-H1793; first compound 6.325 µM): 0.343 | relative viability (NCI-H1793; first compound 20 µM): 0.325 | relative viability (HCC-44; first compound 0.2 µM): 0.569 | relative viability (HCC-44; first compound 0.6325 µM): 0.414 | relative viability (HCC-44; first compound 2 µM): 0.426 | relative viability (HCC-44; first compound 6.325 µM): 0.651 | relative viability (HCC-44; first compound 20 µM): 0.611 | relative viability (LK-2; first compound 0.2 µM): 0.652 | relative viability (LK-2; first compound 0.6325 µM): 0.57 | relative viability (LK-2; first compound 2 µM): 0.359 | relative viability (LK-2; first compound 6.325 µM): 0.364 | relative viability (LK-2; first compound 20 µM): 0.16 | relative viability (NCI-H2087; first compound 0.2 µM): 0.413 | relative viability (NCI-H2087; first compound 0.6325 µM): 0.848 | relative viability (NCI-H2087; first compound 2 µM): 0.966 | relative viability (NCI-H2087; first compound 6.325 µM): 0.642 | relative viability (NCI-H2087; first compound 20 µM): 0.659
